Test results reported in patent EP4745134A1 (Jiangsu Yahong Meditech Co., Ltd., priority 2023, dated 2025).

Tests used:
HCT116-WT cells = experiment: Inhibitory activity against cell proliferation (CellTiter Glo, 6 days), HCT116-WT; type: cell-based; details: 144 h, HCT116-WT cells, 6 days, CellTiter Glo; read-out: HCT116-WT IC50
Outline: (§1)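 250 cells/well, McCoy's 5A + 10% FBS, o/n 37°C 5% CO2; cpd 8-pt 4-fold from 10000 nM, 6 d; CTG lum on day 7; IC50 vs DMSO.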

HCT116 MTAP KO cells = experiment: Inhibitory activity against cell proliferation (CellTiter Glo, 6 days), HCT116 MTAP KO; type: cell-based; details: for IC50: Homo sapiens, HCT-116, 144 h, HCT116 MTAP KO cells, 6 days, CellTiter Glo, read-out: HCT116 MTAP KO IC50; for Selectivity HCT 116-WT/ HCT116 MTAP KO: ratio of IC50 HCT116-WT / HCT116 MTAP KO
Outline: as §1

PRMT5-MTA = PRMT5-MTA (Homo sapiens, UniProt O14744); experiment: Enzymatic inhibitory activity against PRMT5-MTA (AlphaScreen); type: biochemical; details: read-out: IC50
Outline: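 PRMT5/[…] (1 nM) was preincubated for 30 min at room temperature with 1 µM […] and 2.5 µM SAM, then exposed to compound (10-point, 3-fold from 1000 nM) for 15 min at 23 °C. Histone H4 substrate (5 nM) was added and reacted for 45 min at 23 °C. Symmetric dimethyl-R3 H4 was detected by AlphaScreen and IC50 calculated.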

Sequence of PRMT5-MTA (O14744 whole entry): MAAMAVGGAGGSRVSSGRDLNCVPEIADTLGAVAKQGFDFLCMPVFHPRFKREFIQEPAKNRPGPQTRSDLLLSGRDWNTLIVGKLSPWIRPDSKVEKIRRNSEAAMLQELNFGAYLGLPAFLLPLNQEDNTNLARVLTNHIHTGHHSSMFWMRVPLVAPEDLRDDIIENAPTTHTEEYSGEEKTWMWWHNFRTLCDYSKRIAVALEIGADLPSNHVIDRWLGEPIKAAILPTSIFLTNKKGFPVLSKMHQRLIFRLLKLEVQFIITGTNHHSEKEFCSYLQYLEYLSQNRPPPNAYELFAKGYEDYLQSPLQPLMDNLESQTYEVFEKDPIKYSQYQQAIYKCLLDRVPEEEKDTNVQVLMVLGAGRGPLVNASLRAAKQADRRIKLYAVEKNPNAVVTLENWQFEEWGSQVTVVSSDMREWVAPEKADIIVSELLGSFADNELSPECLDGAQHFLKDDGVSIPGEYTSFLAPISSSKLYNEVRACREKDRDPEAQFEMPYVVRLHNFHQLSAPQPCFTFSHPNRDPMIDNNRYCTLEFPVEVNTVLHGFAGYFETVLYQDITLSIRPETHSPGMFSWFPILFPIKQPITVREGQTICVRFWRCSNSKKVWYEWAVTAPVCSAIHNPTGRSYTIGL
Sequence of PRMT5-MTA (Q9BQA1 whole entry partner): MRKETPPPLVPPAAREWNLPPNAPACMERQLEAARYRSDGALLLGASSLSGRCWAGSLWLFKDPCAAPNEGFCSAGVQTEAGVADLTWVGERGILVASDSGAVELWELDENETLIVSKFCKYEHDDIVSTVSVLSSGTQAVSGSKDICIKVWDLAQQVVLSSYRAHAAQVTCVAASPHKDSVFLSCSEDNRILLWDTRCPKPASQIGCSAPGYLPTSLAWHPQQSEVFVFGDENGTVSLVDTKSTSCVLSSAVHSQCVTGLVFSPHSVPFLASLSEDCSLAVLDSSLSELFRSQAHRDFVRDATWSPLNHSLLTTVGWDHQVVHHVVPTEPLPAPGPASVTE

SMILES	IC50 (HCT116-WT cells)	IC50 (HCT116 MTAP KO cells)	Selectivity HCT 116-WT/ HCT116 MTAP KO (HCT116 MTAP KO cells)	IC50 (PRMT5-MTA)
Cc1cc2cc(C(=O)N(Cc3ccc(C(F)(F)F)cn3)N(C)c3ncc4ccccc4n3)ccc2nc1N [Example 109, 2-amino-N',3-dimethyl-N'-(quinazolin-2-yl)-N-((5-(trifluoromethyl)pyridin-2-yl)methyl)quinoline-6-carbohydrazide]	1070 nM	74 nM	14.41	1.2 nM
Cc1cc2cc(C(=O)N(Cc3ccc(C(F)(F)F)cn3)N(C)c3nccc(C#N)n3)ccc2nc1N [Example 110, 2-amino-N'-(4-cyanopyrimidin-2-yl)-N',3-dimethyl-N-((5-(trifluoromethyl)pyridin-2-yl)methyl)quinoline-6-carbohydrazide]	2700 nM	172 nM	15.71	2.5 nM
Cc1cc2cc(C(=O)N(Cc3ccc(C(F)(F)F)cn3)N(C)c3ccccc3F)ccc2nc1N [Example 111, 2-amino-N'-(2-fluorophenyl)-N',3-dimethyl-N-((5-(trifluoromethyl)pyridin-2-yl)methyl)quinoline-6-carbohydrazide]	1040 nM	38 nM	27.47	1.7 nM
Cc1cc2nc(N)c3cnn(C)c3c2cc1C(=O)N(C)N1CCc2cccnc21 [Example 112, 4-amino-N-(2,3-dihydro-1H-pyrrolo[2,3-b]pyridin-1-yl)-N,1,7-trimethyl-1H-pyrazolo[4,3-c]quinoline-8-carboxamide]	> 10000 nM	360 nM	–	1.9 nM
Cc1cc2cc(C(=O)N(Cc3ccc(C(F)(F)F)cn3)N(C)c3ncccc3C(F)F)ccc2nc1N [Example 117, 2-amino-N'-(3-(difluoromethyl)pyridin-2-yl)-N',3-dimethyl-N-((5-(trifluoromethyl)pyridin-2-yl)methyl)quinoline-6-carbohydrazide]	1250 nM	89 nM	14.00	1.8 nM
Cc1cc2cc(C(=O)N(Cc3ccc(C(F)(F)F)cn3)N(C)c3ncc4cc[nH]c4n3)ccc2nc1N [Example 119, 2-amino-N',3-dimethyl-N'-(7H-pyrrolo[2,3-d]pyrimidin-2-yl)-N-((5-(trifluoromethyl)pyridin-2-yl)methyl)quinoline-6-carbohydrazide]	1810 nM	90 nM	20.13	2.3 nM
Cc1cc2cc(C(=O)N(Cc3cc4cccc(F)c4cn3)N(C)c3ncccn3)ccc2nc1N [Example 123, 2-amino-N-((8-fluoroisoquinolin-3-yl)methyl)-N',3-dimethyl-N'-(pyrimidin-2-yl)quinoline-6-carbohydrazide]	1900 nM	88 nM	21.61	2.9 nM
Cc1cc2cc(C(=O)N(Cc3ccc(C(F)(F)F)nn3)N(C)c3ncccn3)ccc2nc1N [Example 124, 2-amino-N',3-dimethyl-N'-(pyrimidin-2-yl)-N-((6-(trifluoromethyl)pyridazin-3-yl)methyl)quinoline-6-carbohydrazide]	6450 nM	220 nM	29.33	5.4 nM
Cc1cc2cc(C(=O)N(Cc3ccc(C(F)(F)F)cn3)N(C)c3c(F)ccc4nccnc34)ccc2nc1N [Example 125, 2-amino-N'-(6-fluoroquinoxalin-5-yl)-N',3-dimethyl-N-((5-(trifluoromethyl)pyridin-2-yl)methyl)quinoline-6-carbohydrazide]	2310 nM	84 nM	27.54	1.7 nM
Cc1cc2cc(C(=O)N(Cc3ccc(C(F)(F)F)cn3)N(C)c3ncc4ccn(C)c4n3)ccc2nc1N [Example 126, 2-amino-N',3-dimethyl-N'-(7-methyl-7H-pyrrolo[2,3-d]pyrimidin-2-yl)-N-((5-(trifluoromethyl)pyridin-2-yl)methyl)quinoline-6-carbohydrazide]	1480 nM	90 nM	16.41	1.3 nM
C=Cc1cccnc1N(C)N(Cc1ccc(C(F)(F)F)cn1)C(=O)c1ccc2nc(N)c(C)cc2c1 [Example 133, 2-amino-N',3-dimethyl-N-((5-(trifluoromethyl)pyridin-2-yl)methyl)-N'-(3-vinylpyridin-2-yl)quinoline-6-carbohydrazide]	3400 nM	312 nM	10.89	3.6 nM
C=C(C)c1cccnc1N(C)N(Cc1ccc(C(F)(F)F)cn1)C(=O)c1ccc2nc(N)c(C)cc2c1 [Example 135, 2-amino-N',3-dimethyl-N'-(3-(prop-1-en-2-yl)pyridin-2-yl)-N-((5-(trifluoromethyl)pyridin-2-yl)methyl)quinoline-6-carbohy drazide]	2080 nM	163 nM	12.75	3.2 nM
COc1nc(C)ccc1-c1ccc(CN(C(=O)c2ccc3nc(N)c(C)cc3c2)N(C)c2ncccn2)nc1 [Example 137, 2-amino-N-((2'-methoxy-6'-methyl-[3,3'-bipyridine]-6-yl)methyl)-N',3-dimethyl-N'-(pyrimidin-2-yl)quinoline-6-carbohydrazide]	1990 nM	110 nM	18.07	1.3 nM
Cc1cc2cc(C(=O)N(Cc3ccc(-c4ccc(C#N)nc4)cn3)N(C)c3ncccn3)ccc2nc1N [Example 139, 2-amino-N-((6'-cyano-[3,3'-bipyridine]-6-yl)methyl)-N',3-dimethyl-N'-(pyrimidin-2-yl)quinoline-6-carbohydrazide]	281 nM	22 nM	12.77	3 nM
Cc1cc2cc(C(=O)N(Cc3ccc(-c4ccc(N5CCN(C)CC5)nc4)cn3)N(C)c3ncccn3)ccc2nc1N [Example 140, 2-amino-N',3-dimethyl-N-((6'-(4-methylpiperazin-1-yl)-[3,3'-bipyridine]-6-yl)methyl)-N'-(pyrimidin-2-yl)quinoline-6-carbohydrazide]	2060 nM	46 nM	44.67	1.6 nM
Cc1cc2cc(C(=O)N(Cc3ccc(-c4ccccn4)cn3)N(C)c3ncccn3)ccc2nc1N [Example 141, N-([2,3'-bipyridine]-6'-ylmethyl)-2-amino -N',3-dimethyl-N'-(pyrimidin-2-yl)quino line-6-carbohydrazide]	2030 nM	76 nM	26.76	2.3 nM
Cc1cc2cc(C(=O)N(Cc3ccc(-c4cc[nH]n4)cn3)N(C)c3ncccn3)ccc2nc1N [Example 142, N-((5-(1H-pyrazol-3-yl)pyridin-2-yl)methyl)-2-amino-N',3-dimethyl-N'-(pyrimidin-2-yl)quinoline-6-carbohydrazide]	3910 nM	201 nM	19.43	4.1 nM
Cc1cc2cc(C(=O)N(Cc3ccc(-c4ccc(N)nc4)cn3)N(C)c3ncccn3)ccc2nc1N [Example 144, 2-amino-N-((6'-amino-[3,3'-bipyridine]-6-yl)methyl)-N',3-dimethyl-N'-(pyrimidin-2-yl)quinoline-6-carbohydrazide]	616 nM	26 nM	23.69	1.5 nM
Cc1cc2cc(C(=O)N(Cc3ccc(-c4cnc(N5CCN(C)CC5)nc4)cn3)N(C)c3ncccn3)ccc2nc1N [Example 147, 2-amino-N',3-dimethyl-N-((5-(2-(4-methylpiperazin-1-yl)pyrimidin-5-yl)pyridin-2-yl)methyl)-N'-(pyrimidin-2-yl)quinoline-6-carbohydrazide]	1380 nM	46 nM	29.93	2.2 nM
Cc1cc2cc(C(=O)N(Cc3ccc(-c4ccn(C)c4)cn3)N(C)c3ncccn3)ccc2nc1N [Example 148, 2-amino-N',3-dimethyl-N-((5-(1-methyl-1H-pyrrol-3-yl)pyridin-2-yl)methyl)-N'-(pyrimidin-2-yl)quinoline-6-carbohydrazide]	3090 nM	179 nM	17.25	1 nM
Cc1cc2cc(C(=O)N(Cc3ccc(-c4cnn(C5CCC5)c4)cn3)N(C)c3ncccn3)ccc2nc1N [Example 149, 2-amino-N-((5-(1-cyclobutyl-1H-pyrazol-4-yl)pyridin-2-yl)methyl)-N',3-dimethyl-N'-(pyrimidin-2-yl)quinoline-6-carbohydr azide]	1590 nM	99 nM	16.02	2.9 nM
Cc1ncc(-c2ccc(CN(C(=O)c3ccc4nc(N)c(C)cc4c3)N(C)c3ncccn3)nc2)s1 [Example 151, 2-amino-N',3-dimethyl-N-((5-(2-methylthiazol-5-yl)pyridin-2-yl)methyl)-N'-(pyrimidin-2-yl)quinoline-6-carbohydrazide]	601 nM	19 nM	31.63	6.4 nM
